In patent US11026427B2, “Microbiocidal oxadiazole derivatives” (SYNGENTA PARTICIPATIONS AG, priority 2016, dated 2021) one finds pest or weed control, inhibition of growth and melting point data, which are given here for 17 molecules.

One may read the melting point as the temperature of the solid-liquid transition.

Molecules are shown by their SMILES. Where only a bound is given, the exact number is not on record here.

The subject of series [1] is Uromyces viciae-fabae. The series can be described thus: Uromyces viciae-fabae / field bean / leaf disc preventative (faba-bean rust). The format is in vivo. Conditions: foliar, 288 h, 100 ppm in the applied formulation, compared to untreated control, read-out: disease control. The procedure: (§1) Leaf disks or leaf segments of various plant species are cut from plants grown in a greenhouse. The cut leaf disks or segments are placed in multiwell plates (24-well format) onto water agar. The leaf disks are sprayed with a test solution before (preventative) or after (curative) inoculation. Compounds to be tested are prepared as DMSO solutions (max. 10 mg/ml) which are diluted to the appropriate concentration with 0.025% Tween20 just before spraying. The inoculated leaf disks or segments are incubated under defined conditions (temperature, relative humidity, light, etc.) according to the respective test system. A single evaluation of disease level is carried out 3 to 14 days after inoculation, depending on the pathosystem. Percent disease control relative to the untreated check leaf disks or segments is then calculated.
Field bean leaf discs are placed on water agar in multiwell plates (96-well format) and 10 μl of the formulated test compound diluted in acetone and a spreader pipetted onto the leaf disc. Two hours after application leaf discs are inoculated by spraying a spore suspension on the lower leaf surface. The leaf discs are incubated in a climate cabinet at 22° C. with 18 hour day and 70% relative humidity. The activity of a compound is assessed as percent disease control compared to untreated when an appropriate level of disease damage appears in untreated check leaf disks (12 days after application).
The following compounds at 100 ppm in the applied formulation give at least 80% disease control in this test when compared to untreated control leaf discs under the same conditions, which show extensive disease development.

Series [2] concerns Puccinia recondita f. Sp. tritici. The experiment in a line: Puccinia recondita f. sp. tritici / wheat / leaf disc preventative (brown rust). The format is in vivo. As to conditions: foliar, 200 ppm in the applied formulation, compared to untreated control, read-out: disease control. The procedure: as §1, with “calculated. Wheat leaf segments cv. Kanzler were placed on agar in multiwell plates (24-well format) and sprayed with the formulated test compound diluted in water. The leaf disks were inoculated with a spore suspension of the fungus 1 day after application. The inoculated leaf segments were incubated at 19° C. and 75% relative humidity (rh) under a light regime of 12 hours light/12 hours darkness in a climate cabinet and the activity of a compound was assessed as percent disease control compared to untreated when an appropriate level of disease damage appears in untreated check leaf segments (7 to 9 days after application). The following compounds at 200 ppm in the applied formulation give at least 80% disease control in this test when compared to untreated control leaf disks under the same conditions, which show extensive disease development.” for “calculated.”

Series [3] concerns Glomerella lacenarium (Colletotrichum lacenarium). The series can be described thus: Glomerella lacenarium (Colletotrichum lacenarium) liquid culture / cucumber / preventative (anthracnose). The series is classed as cell-based. As to conditions: 20 ppm in the applied formulation, growth inhibition measured photometrically, compared to untreated control, read-out: disease control. The procedure: Mycelia fragments or conidia suspensions of a fungus prepared either freshly from liquid cultures of the fungus or from cryogenic storage, are directly mixed into nutrient broth. DMSO solutions of the test compound (max. 10 mg/ml) are diluted with 0.025% Tween20 by a factor of 50 and 10 μl of this solution is pipetted into a microtiter plate (96-well format). The nutrient broth containing the fungal spores/mycelia fragments is then added to give an end concentration of the tested compound. The test plates are incubated in the dark at 24° C. and 96% relative humidity. The inhibition of fungal growth is determined photometrically after 2 to 7 days, depending on the pathosystem, and percent antifungal activity relative to the untreated check is calculated.
Conidia of the fungus from cryogenic storage are directly mixed into nutrient broth (PDB—potato dextrose broth). After placing a (DMSO) solution of test compound into a microtiter plate (96-well format), the nutrient broth containing the fungal spores is added. The test plates are incubated at 24° C. and the inhibition of growth is measured photometrically 3 to 4 days after application.
The following compounds at 20 ppm in the applied formulation give at least 80% disease control in this test when compared to untreated control under the same conditions, which show extensive disease development.

The subject of series [4] is Puccinia recondita f. Sp. tritici. The series can be described thus: Puccinia recondita f. sp. tritici / wheat / leaf disc curative (brown rust). The series is classed as in vivo. Conditions: foliar, 200 ppm in the applied formulation, compared to untreated control, read-out: disease control. The protocol:
as §1
Wheat leaf segments cv. Kanzler are placed on agar in multiwell plates (24-well format). The leaf segments are then inoculated with a spore suspension of the fungus. Plates were stored in darkness at 19° C. and 75% relative humidity. The formulated test compound diluted in water was applied 1 day after inoculation. The leaf segments were incubated at 19° C. and 75% relative humidity under a light regime of 12 hours light/12 hours darkness in a climate cabinet and the activity of a compound was assessed as percent disease control compared to untreated when an appropriate level of disease damage appears in untreated check leaf segments (6 to 8 days after application).
(§2) The following compounds at 200 ppm in the applied formulation give at least 80% disease control in this test when compared to untreated control leaf disks under the same conditions, which show extensive disease development.

Series [5] relates to Phakopsora pachyrhizi. The series can be described thus: Phakopsora pachyrhizi / soybean / leaf disc preventative (Asian soybean rust). The series is classed as in vivo. Conditions: foliar, 200 ppm in the applied formulation, compared to untreated control, read-out: disease control. The procedure: as §1
Soybean leaf disks are placed on water agar in multiwell plates (24-well format) and sprayed with the formulated test compound diluted in water. One day after application leaf discs are inoculated by spraying a spore suspension on the lower leaf surface. After an incubation period in a climate cabinet of 24-36 hours in darkness at 20° C. and 75% rh leaf disc are kept at 20° C. with 12 h light/day and 75% rh. The activity of a compound is assessed as percent disease control compared to untreated when an appropriate level of disease damage appears in untreated check leaf disks (12 to 14 days after application).
as §2

As for `CC(C)(C)C(=O)c1ccc(-c2noc(C(F)(F)F)n2)cc1` [Compound 1.4, 2,2-dimethyl-1-[4-[5-(trifluoromethyl)-1,2,4-oxadiazol-3-yl]phenyl]propan-1-one], in series [1], the pest or weed control at 100 ppm is at least 80%.

Turning to `CC#CC(=O)c1ccc(-c2noc(C(F)(F)F)n2)cc1` [Compound 1.7, 1-[4-[5-(trifluoromethyl)-1,2,4-oxadiazol-3-yl]phenyl]but-2-yn-1-one], the melting point fell in the range of 84 to 87 °C. In series [2], the pest or weed control at 200 ppm was at least 80%. Further, the inhibition of growth at 20 ppm in series [3] was at least 80%. In series [1], the pest or weed control at 100 ppm is at least 80%.

As for `C/C=C/CC(O)c1ccc(-c2noc(C(F)(F)F)n2)cc1` (stereo not shown) [Compound 2.9, 1-[4-[5-(trifluoromethyl)-1,2,4-oxadiazol-3-yl]phenyl]pent-3-en-1-ol], the inhibition of growth at 20 ppm in series [3] was at least 80%. Further, the pest or weed control at 100 ppm in series [1] is at least 80%.

In turn, `Cc1cc(C(O)c2ccc(-c3noc(C(F)(F)F)n3)cc2)on1` (stereo not shown) [Compound 2.14, (3-methylisoxazol-5-yl)-[4-[5-(trifluoromethyl)-1,2,4-oxadiazol-3-yl]phenyl]methanol] had a melting point of 84 to 90 °C. Besides, the pest or weed control at 200 ppm in series [2] is at least 80%. Moreover, the pest or weed control at 200 ppm in series [4] was at least 80%. In addition, the pest or weed control at 200 ppm in series [5] was at least 80%. Further, the inhibition of growth at 20 ppm in series [3] is at least 80%.

As for `O=C(c1ccc(OC(F)(F)F)cc1)c1ccc(-c2noc(C(F)(F)F)n2)cc1` [Compound 1.6, [4-(trifluoromethoxy)phenyl]-[4-[5-(trifluoromethyl)-1,2,4-oxadiazol-3-yl]phenyl]methanone], the melting point lay in the range of 104 to 107 °C. In series [1], the pest or weed control at 100 ppm was at least 80%.

`OC(c1ccc(-c2noc(C(F)(F)F)n2)cc1)C1CC1` (stereo not shown) [Compound 2.7, cyclopropyl-[4-[5-(trifluoromethyl)-1,2,4-oxadiazol-3-yl]phenyl]methanol] gave a melting point of 69 to 73 °C. Moreover, the pest or weed control at 200 ppm in series [2] is at least 80%. The inhibition of growth at 20 ppm in series [3] was at least 80%. Besides, the pest or weed control at 100 ppm in series [1] is at least 80%.

For `COc1ccc(C(O)c2ccc(-c3noc(C(F)(F)F)n3)cc2)cc1` (stereo not shown) [Compound 2.4, (4-methoxyphenyl)-[4-[5-(trifluoromethyl)-1,2,4-oxadiazol-3-yl]phenyl]methanol], the melting point was 67 to 70 °C. Moreover, the pest or weed control at 200 ppm in series [5] was at least 80%. In series [1], the pest or weed control at 100 ppm was at least 80%.

`COc1ccc(C(=O)c2ccc(-c3noc(C(F)(F)F)n3)cc2)nc1` [Compound 1.20, (5-methoxy-2-pyridyl)-[4-[5-(trifluoromethyl)-1,2,4-oxadiazol-3-yl]phenyl]methanone]: the melting point was in the range of 65 to 73 °C. Besides, the pest or weed control at 200 ppm in series [2] is at least 80%. In series [4], the pest or weed control at 200 ppm is at least 80%. Moreover, the pest or weed control at 200 ppm in series [5] is at least 80%. In addition, the inhibition of growth at 20 ppm in series [3] was at least 80%.

Molecule `Cc1ccnc(C(=O)c2ccc(-c3noc(C(F)(F)F)n3)cc2)c1` [Compound 1.27, (4-methyl-2-pyridyl)-[4-[5-(trifluoromethyl)-1,2,4-oxadiazol-3-yl]phenyl]methanone] registered a melting point of 76 to 81 °C. The pest or weed control at 200 ppm in series [2] was at least 80%. Further, in series [4], the pest or weed control at 200 ppm was at least 80%. In series [5], the pest or weed control at 200 ppm is at least 80%. Further, the inhibition of growth at 20 ppm in series [3] is at least 80%.

Regarding `O=C(c1ccc(-c2noc(C(F)(F)F)n2)cc1)c1ccccn1` [Compound 1.16, 2-pyridyl-[4-[5-(trifluoromethyl)-1,2,4-oxadiazol-3-yl]phenyl]methanone], the melting point lay in the range of 66 to 70 °C. Also, the pest or weed control at 200 ppm in series [2] was at least 80%. Further, the pest or weed control at 200 ppm in series [4] was at least 80%. Further, in series [5], the pest or weed control at 200 ppm is at least 80%. For the same molecule, in series [3], the inhibition of growth at 20 ppm was at least 80%.

`CCn1cc(C(=O)c2ccc(-c3noc(C(F)(F)F)n3)cc2)cn1` [Compound 1.17, (1-ethylpyrazol-4-yl)-[4-[5-(trifluoromethyl)-1,2,4-oxadiazol-3-yl]phenyl]methanone] had a melting point of 80 to 86 °C. Further, the pest or weed control at 200 ppm in series [2] is at least 80%. In series [4], the pest or weed control at 200 ppm is at least 80%. Moreover, the pest or weed control at 200 ppm in series [5] was at least 80%. For the same molecule, the inhibition of growth at 20 ppm in series [3] is at least 80%.

The molecule `O=C(c1ccc(-c2noc(C(F)(F)F)n2)cc1)C1CC1` [Compound 1.9, cyclopropyl-[4-[5-(trifluoromethyl)-1,2,4-oxadiazol-3-yl]phenyl]methanone] gave a melting point of 58 to 62 °C. Moreover, in series [3], the inhibition of growth at 20 ppm was at least 80%. Further, in series [1], the pest or weed control at 100 ppm is at least 80%.

In the case of `CC(=O)c1ccc(-c2noc(C(F)(F)F)n2)cc1` [Compound 1.2, 1-[4-[5-(trifluoromethyl)-1,2,4-oxadiazol-3-yl]phenyl]ethanone], the melting point lay within 105 to 115 °C. Further, in series [1], the pest or weed control at 100 ppm is at least 80%.

`CCCCC(O)c1ccc(-c2noc(C(F)(F)F)n2)cc1` (stereo not shown) [Compound 2.3, 1-[4-[5-(trifluoromethyl)-1,2,4-oxadiazol-3-yl]phenyl]pentan-1-ol]: the pest or weed control at 100 ppm in series [1] is at least 80%.

Molecule `OC(c1ccc(OC(F)(F)F)cc1)c1ccc(-c2noc(C(F)(F)F)n2)cc1` (stereo not shown) [Compound 2.5, [4-(trifluoromethoxy)phenyl]-[4-[5-(trifluoromethyl)-1,2,4-oxadiazol-3-yl]phenyl]methanol] gave a melting point of 90 to 93 °C. Further, the inhibition of growth at 20 ppm in series [3] is at least 80%. The pest or weed control at 100 ppm in series [1] was at least 80%.

The molecule `C=CCC(=O)c1ccc(-c2noc(C(F)(F)F)n2)cc1` [Compound 1.8, 1-[4-[5-(trifluoromethyl)-1,2,4-oxadiazol-3-yl]phenyl]but-3-en-1-one] had a melting point of 65 to 69 °C. For the same molecule, in series [3], the inhibition of growth at 20 ppm was at least 80%. The pest or weed control at 100 ppm in series [1] was at least 80%.

For the molecule `CC(C)CC(=O)c1ccc(-c2noc(C(F)(F)F)n2)cc1` [Compound 1.10, 3-methyl-1-[4-[5-(trifluoromethyl)-1,2,4-oxadiazol-3-yl]phenyl]butan-1-one], the pest or weed control at 200 ppm in series [5] is at least 80%. The pest or weed control at 100 ppm in series [1] is at least 80%.
